Experimental data as given in the NIST ThermoML archive (doi:10.1021/je200030k).
± gives the expanded uncertainty stated by the source.

Assays:
[1] = 101.33 kPa, Liquid, Vibrating tube method
[2] = refractive index (Na D-line) (dimensionless); settings: 101.33 kPa, Liquid, Standard Abbe refractometry

mass density ([1]; 298.15 K) [kg/m3] | mass density ([1]; 303.15 K) [kg/m3] | mass density ([1]; 308.15 K) [kg/m3] | mass density ([1]; 313.15 K) [kg/m3] | refractive index ([2]; 298.15 K) | refractive index ([2]; 303.15 K) | refractive index ([2]; 308.15 K) | refractive index ([2]; 313.15 K) | Compound
1260.26 ± 1.1 | 1257.2 ± 1.1 | 1254.1 ± 1.1 | 1250.77 ± 1.1 | 1.52 ± 0.002 | 1.519 ± 0.002 | 1.517 ± 0.002 | 1.517 ± 0.002 | CCCCn1cc[n+](C)c1.NCC(=O)[O-] [1-butyl-3-methylimidazolium glycinate]
806 ± 1 | 802.4 ± 1 | 798.2 ± 1 | 794.6 ± 1 | 1.397 ± 0.002 | 1.395 ± 0.002 | 1.393 ± 0.002 | 1.391 ± 0.002 | CCCCO [butan-1-ol]
781.2 ± 1 | 774 ± 1 | 765.8 ± 1 | 757.2 ± 1 | 1.375 ± 0.002 | 1.374 ± 0.002 | 1.373 ± 0.002 | 1.372 ± 0.002 | CC(C)O [propan-2-ol]
